Laboratory results published in article PMC3426363 (Pharmaceutical research, 2011).
Values belong to the compound of their own block, whether it stands above or below them.

Columns and labels:
[1] = biological target: T1, UGT1A9 (Homo sapiens, UniProt O60656); details: ref 32 (Chen et al.); cited from earlier work
T1 sequence (O60656 26-530): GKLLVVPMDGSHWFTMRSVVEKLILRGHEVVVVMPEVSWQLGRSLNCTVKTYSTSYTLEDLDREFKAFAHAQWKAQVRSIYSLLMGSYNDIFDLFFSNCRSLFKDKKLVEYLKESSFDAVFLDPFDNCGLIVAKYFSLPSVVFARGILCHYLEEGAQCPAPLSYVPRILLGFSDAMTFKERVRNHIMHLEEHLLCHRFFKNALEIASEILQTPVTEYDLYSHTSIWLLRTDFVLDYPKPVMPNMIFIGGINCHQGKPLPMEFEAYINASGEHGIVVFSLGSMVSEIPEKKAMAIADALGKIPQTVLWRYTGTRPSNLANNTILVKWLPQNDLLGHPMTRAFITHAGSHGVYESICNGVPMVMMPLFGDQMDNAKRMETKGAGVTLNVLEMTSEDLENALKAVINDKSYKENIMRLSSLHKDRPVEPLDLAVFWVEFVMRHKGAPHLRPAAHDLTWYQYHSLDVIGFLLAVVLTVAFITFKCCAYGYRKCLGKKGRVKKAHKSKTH

[2] = biological target: T2, UGT1A3 (Homo sapiens, UniProt P35503); details: published observation; cited from earlier work
T2 sequence (P35503 29-534): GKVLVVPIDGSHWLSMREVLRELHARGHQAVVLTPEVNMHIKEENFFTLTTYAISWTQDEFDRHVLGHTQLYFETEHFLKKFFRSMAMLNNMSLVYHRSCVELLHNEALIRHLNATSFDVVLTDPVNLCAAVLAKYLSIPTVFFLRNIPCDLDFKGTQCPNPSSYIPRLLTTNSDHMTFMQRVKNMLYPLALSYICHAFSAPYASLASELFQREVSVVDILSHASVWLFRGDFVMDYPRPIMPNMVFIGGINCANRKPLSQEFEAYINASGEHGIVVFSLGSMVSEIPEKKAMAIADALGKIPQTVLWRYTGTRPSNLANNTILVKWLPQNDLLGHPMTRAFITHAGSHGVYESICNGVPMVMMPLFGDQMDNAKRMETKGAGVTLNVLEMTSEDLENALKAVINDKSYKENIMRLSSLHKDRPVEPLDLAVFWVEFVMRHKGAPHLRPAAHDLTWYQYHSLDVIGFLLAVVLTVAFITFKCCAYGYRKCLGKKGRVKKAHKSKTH

[3] = biological target: T3, UGT1A1 (Homo sapiens, UniProt P22309); assay: UGT1A1 glucuronidation kinetics of flavonols; type: in vitro ADME; details: for Ks: substrate inhibition constant
T3 sequence (P22309 26-533): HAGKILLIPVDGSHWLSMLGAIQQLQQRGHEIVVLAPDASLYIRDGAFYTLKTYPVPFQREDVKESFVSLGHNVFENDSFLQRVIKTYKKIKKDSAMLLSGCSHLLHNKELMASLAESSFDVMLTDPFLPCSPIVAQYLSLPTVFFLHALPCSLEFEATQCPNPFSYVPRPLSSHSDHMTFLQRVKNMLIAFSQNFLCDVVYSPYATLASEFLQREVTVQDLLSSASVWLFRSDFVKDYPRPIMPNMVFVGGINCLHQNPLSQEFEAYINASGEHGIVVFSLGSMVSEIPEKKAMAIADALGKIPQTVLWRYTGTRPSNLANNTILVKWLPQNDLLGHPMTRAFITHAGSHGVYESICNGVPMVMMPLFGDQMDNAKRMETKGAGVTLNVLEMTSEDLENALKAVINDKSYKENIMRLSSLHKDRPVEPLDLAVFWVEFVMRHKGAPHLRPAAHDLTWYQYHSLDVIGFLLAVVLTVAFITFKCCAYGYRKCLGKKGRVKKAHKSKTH

[4] = biological target: T2, UGT1A3; assay: UGT1A3 glucuronidation kinetics of flavonols; type: in vitro ADME; details: substrate inhibition constant
[5] = biological target: T4, UGT1A7 (Homo sapiens, UniProt Q9HAW7); assay: UGT1A7 glucuronidation kinetics of flavonols; type: in vitro ADME; details: formation of 3-O-glucuronide, substrate inhibition constant
T4 sequence (Q9HAW7 26-530): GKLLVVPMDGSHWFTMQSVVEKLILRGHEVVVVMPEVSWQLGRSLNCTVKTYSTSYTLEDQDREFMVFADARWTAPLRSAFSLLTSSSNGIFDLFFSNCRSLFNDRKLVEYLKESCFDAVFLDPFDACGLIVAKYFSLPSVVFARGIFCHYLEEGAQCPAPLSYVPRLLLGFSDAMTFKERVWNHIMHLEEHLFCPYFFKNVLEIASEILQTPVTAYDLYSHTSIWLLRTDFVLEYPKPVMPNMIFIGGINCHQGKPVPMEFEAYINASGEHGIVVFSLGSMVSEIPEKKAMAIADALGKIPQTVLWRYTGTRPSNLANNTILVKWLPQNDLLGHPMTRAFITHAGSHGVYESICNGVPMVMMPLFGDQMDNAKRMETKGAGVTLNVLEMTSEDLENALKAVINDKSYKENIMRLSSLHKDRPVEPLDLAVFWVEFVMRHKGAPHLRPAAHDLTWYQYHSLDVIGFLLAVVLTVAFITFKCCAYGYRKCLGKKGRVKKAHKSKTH

[6] = biological target: T5, UGT1A8 (Homo sapiens, UniProt Q9HAW9); assay: UGT1A8 glucuronidation kinetics of flavonols; type: in vitro ADME; details: formation of 3-O-glucuronide
T5 sequence (Q9HAW9 26-530): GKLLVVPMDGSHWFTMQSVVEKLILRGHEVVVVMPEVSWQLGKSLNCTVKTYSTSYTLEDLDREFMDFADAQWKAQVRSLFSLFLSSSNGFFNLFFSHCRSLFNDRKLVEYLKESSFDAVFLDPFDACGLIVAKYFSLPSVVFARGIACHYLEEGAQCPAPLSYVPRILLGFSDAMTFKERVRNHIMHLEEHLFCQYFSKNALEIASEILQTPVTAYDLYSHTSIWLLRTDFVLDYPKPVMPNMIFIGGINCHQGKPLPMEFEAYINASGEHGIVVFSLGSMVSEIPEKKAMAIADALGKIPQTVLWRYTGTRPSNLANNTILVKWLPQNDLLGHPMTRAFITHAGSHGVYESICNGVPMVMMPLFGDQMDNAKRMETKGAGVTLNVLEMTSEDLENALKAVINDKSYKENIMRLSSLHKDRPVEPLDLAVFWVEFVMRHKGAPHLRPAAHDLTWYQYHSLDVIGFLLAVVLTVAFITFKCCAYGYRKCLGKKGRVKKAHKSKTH

[7] = biological target: T1, UGT1A9; assay: UGT1A9 glucuronidation kinetics of flavonols; type: in vitro ADME
[8] = biological target: T6, UGT1A10 (Homo sapiens, UniProt Q9HAW8); assay: UGT1A10 glucuronidation kinetics of flavonols; type: in vitro ADME; details: formation of 3-O-glucuronide, substrate inhibition constant
T6 sequence (Q9HAW8 26-530): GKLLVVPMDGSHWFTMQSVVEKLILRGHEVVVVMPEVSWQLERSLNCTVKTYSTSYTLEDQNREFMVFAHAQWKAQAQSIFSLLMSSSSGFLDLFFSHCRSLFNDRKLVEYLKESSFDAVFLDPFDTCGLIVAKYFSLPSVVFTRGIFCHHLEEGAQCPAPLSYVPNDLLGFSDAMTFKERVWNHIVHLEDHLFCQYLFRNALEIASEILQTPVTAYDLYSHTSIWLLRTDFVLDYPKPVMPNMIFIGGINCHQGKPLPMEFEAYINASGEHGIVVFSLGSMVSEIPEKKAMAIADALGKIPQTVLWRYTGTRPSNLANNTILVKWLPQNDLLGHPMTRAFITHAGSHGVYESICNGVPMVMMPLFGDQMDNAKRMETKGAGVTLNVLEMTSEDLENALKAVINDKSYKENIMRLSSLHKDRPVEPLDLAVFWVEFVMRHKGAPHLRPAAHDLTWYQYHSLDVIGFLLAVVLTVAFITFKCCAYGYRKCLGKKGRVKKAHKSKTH

[9] = biological target: T3, UGT1A1; assay: Inhibition of UGT1A1-mediated glucuronidation of 3-hydroflavone; type: biochemical; details: 40 µM inhibitor; data not shown

SMILES: O=c1c(O)c(-c2ccc(O)c(O)c2)oc2cc(O)cc(O)c12 [quercetin, 3,5,7,3’,4’-pentahydroxyflavone]
regioselectivity of glucuronidation [1]: 3-O-glucuronidation was most efficient with the highest CLint value

SMILES: COc1ccc(C2CC(=O)c3c(O)cc(O)cc3O2)cc1O (centres unmarked) [hesperetin, 4'-methoxy-3',5,7-trihydroxyflavanone]
glucuronide generated [2]: only 7-O-glucuronide was generated

SMILES: O=c1c(O)c(-c2ccccc2)oc2cc(O)cc(O)c12 [3,5,7THF, 3,5,7-trihydroxyflavone]
Vmax ([3]; formation of 3-O-glucuronide): 0.82 nmol/mg/min
Ks ([3]; formation of 3-O-glucuronide): 2.64 ± 0.89 µM
Vmax ([3]; formation of 7-O-glucuronide): 4.59 nmol/mg/min
Ks ([3]; formation of 7-O-glucuronide): 1.22 ± 0.19 µM
Ks ([4]; formation of 3-O-glucuronide): 17.86 ± 6.33 µM
Ks ([4]; formation of 7-O-glucuronide): 9.95 ± 9.16 µM
Ks [5]: 55.75 ± 7.27 µM
Vmax [6]: 3.89 nmol/mg/min
Ks ([6]; substrate inhibition constant): 37.28 ± 10.12 µM
Km ([7]; formation of 3-O-glucuronide): 0.68 ± 0.16 µM
Vmax ([7]; formation of 3-O-glucuronide): 7.41 ± 0.89 nmol/mg/min
Ks ([7]; formation of 3-O-glucuronide, substrate inhibition constant): 7.43 ± 2.12 µM
Km ([7]; formation of 7-O-glucuronide): 0.54 ± 0.08 µM
Vmax ([7]; formation of 7-O-glucuronide): 2.56 ± 0.10 nmol/mg/min
Ks [8]: 73.48 ± 17.82 µM

Ks ([3]; formation of 3-O-glucuronide): 5.41 ± 0.93 µM
Ks ([3]; formation of 7-O-glucuronide): 3.53 ± 0.86 µM
inhibition of glucuronidation of 3-hydroflavone by UGT1A1 [9]: completely inhibited
SMILES: O=c1c(O)c(-c2ccc(O)cc2)oc2cc(O)ccc12 [3,7,4’THF, 3,7,4’-tryhydroxyflavone]
